Counter-ions that a name gives are not always drawn.
Tests used:
[1] = Plasma, brain interstitial fluid (microdialysis) and whole-brain drug levels after intravenous (IV) and intracalvariosseous (ICO) administration; assay type: in vivo, rat; details: for brain-to-plasma ratio (Kp), ICO administration group relative to IV administration group: at 24 hours after administration; for brain-to-plasma ratio (Kp), ICO administration group relative to IV administration group / Cbr (brain drug concentration), ICO administration group relative to IV administration group: fold higher in ICO (5 mg/kg) than IV (0.5 mg/kg); for AUCISF of the ICO administration group compared with the IV administration group: brain interstitial fluid (microdialysis, right hippocampus); for AUCplasma of the ICO administration group compared with the IV administration group: rat plasma; for Cbr (brain drug concentration), ICO administration group relative to IV administration group: whole brain at 24 hours after administration
Procedure: The experiment was performed with 5-week-old male rats weighing […]. To ensure statistical independence, only male rats were used in each experiment.
Eight rats were randomly assigned to the IV and ICO administration groups for each compound and were administered continuously from the next day (n=4).
In order to perform the experiment, the drug administration device of the present disclosure should be installed on the rats in the ICO administration group, and a guide cannula for a microdialysis probe for measuring the concentration of drugs in the brain should be installed on the rats in both the ICO administration group and the IV administration group.
As illustrated in FIG. 9 and FIG. 10, the drug administration device was installed on the left side of the skull of the rats in the ICO administration group, and the guide cannula was installed on the right side, while only the guide cannula was implanted in the skull of the IV administration group.
Then, in order to implant the microdialysis guide cannula, the rats in the ICO and IV administration groups were anesthetized with isoflurane, and a small hole was drilled in the skull, and the guide cannula was inserted into the right hippocampus (see FIGS. 9 and 10). The inserted guide cannula was fixed with dental cement, and the skin wound was sutured, and then the rats were allowed to recover from the surgery in the cage for one day.
Before the drug administration, the membrane of the microdialysis probe was soaked in ethanol and artificial cerebrospinal fluid (aCSF) buffer was perfused through the microdialysis probe at a flow rate of 0.5 μl/min for 1 hour for stabilization.
In addition, the ICO administration group was administered at a dose of 5 mg/kg by filling the drug into the receiving portion 100 of the drug administration device.
The perfusate of the microdialysis probe was collected every 30 minutes for […] between 8 and 24 hours after administration.
The dialysate samples were stored at […] until the time of LC-MS/MS analysis (tandem mass spectrometry).
Blood samples were immediately centrifuged at 10,000 rpm for 10 minutes at 4° C. to recover plasma. In the case of TMZ, blood samples collected after administration were immediately centrifuged and then 10 μl of plasma was acidified with 2 μl of 0.1% formic acid.
Brains were excised 24 hours after administration, and PBS (phosphate buffer saline) corresponding to the weight of each tissue sample was added, followed by homogenization using a homogenizer.
Plasma and homogenized brain tissue samples were stored at […] until LC-MS/MS analysis.
The areas under the curve in plasma (AUCplasma) and interstitial fluid (ISF) concentration-time curves (AUCISF) were determined by noncompartmental analysis using WinNonlin 2.1. Brain concentration (Cbr) in the whole brain at 24 hours was corrected for the plasma volume of the corresponding organ using the Expression below, which was determined using LC-MS/MS.
In the above Expression, Cbr, quant, 24 h is the brain drug concentration (ng/g) at 24 hours quantified by LC-MS/MS, V0 is the plasma volume of the corresponding organ (μl/g), Cplasma, 24 h at 24 hours is the plasma concentration (ng/ml), and the V0 value for the brain was selected as 9.3±1.1 μl/g.
Compared to IV administration, the extent of brain uptake after ICO administration was expressed as brain availability (Fbr), which is similar to systemic bioavailability (F), and was calculated as the ratio of AUCISF, IV and AUCISF, ICO using the Expression below.
In the above Expression, AUCISF,ICO and AUCISF,IV are the areas under the curves in the brain interstitial fluid-time plot (AUCISF) up to 24 hours after ICO administration and IV administration, respectively.

[2] = Near-infrared (NIR) fluorescence imaging of ICG diffusion in the skull after administration through the installed device; assay type: in vivo, rat; details: 24 hours after 50 μl of ICG (500 μg/ml in saline), NIR fluorescence image
Procedure: Next, the integrity of the drug administration device installed in the skull of the rat was tested by near-infrared (NIR) fluorescence imaging using indocyanine green (IGC).
The diffusion of ICG into the rat skull was observed by the near-infrared fluorescence imaging of the drug administration device installed in the thinned rat skull.
50 μl of ICG (500 μg/ml in saline) was administered to the rat with the drug administration device installed. After 24 hours, the rat was anesthetized, placed in a stereotaxic position, and the scalp was cut. For the ICG-NIR fluorescence imaging, a 780 nm laser with 150 mW output was set at a distance of 80 mm and an angle of 20° from the target through a C-clamp on a Z stand for a laser spot size of 15 mm width and 25 mm length, and fluorescence images were recorded at 1 frame per second using basedcam2 software while NIR light was administered through the 780 nm laser.

[3] = up to 24 h, ICO 5 mg/kg vs IV 0.5 mg/kg

SMILES | brain-to-plasma ratio (Kp), ICO administration group relative to IV administration group [1] | AUCISF of the ICO administration group compared with the IV administration group [1, 3] | AUCplasma of the ICO administration group compared with the IV administration group [1, 3] | Cbr (brain drug concentration), ICO administration group relative to IV administration group [1] | ICG signal in the left skull where the drug administration device was installed [2] | ICG signal in the right skull [2] | AUCISF after ICO administration ([1]; ICO 5 mg/kg, brain interstitial fluid, up to 24 h) | ISF concentration after IV administration ([1]; IV 0.5 mg/kg, all time points, brain interstitial fluid) | AUC ratio (%, AUCISF/AUCplasma), ICO administration group relative to IV administration group ([1]; fold higher in ICO than IV group, ICO 5 mg/kg vs IV 0.5 mg/kg)
CN(C)CCCN1c2ccccc2Sc2ccc(Cl)cc21 [CPZ, Chlorpromazine hydrochloride] | 35.3 times | no different | relatively lower | 85.1 times | – | – | – | – | –
[2H]C([2H])(N)C([2H])([2H])C([2H])([2H])C(=O)O [GABA, gamma-aminobutyric acid-d6] | 3.4 times | relatively higher | relatively lower | 3.1 times | – | – | – | – | –
CC1(C)C(/C=C/C=C/C=C/C=C2\N(CCCCS(=O)(=O)O)c3ccc4ccccc4c3C2(C)C)=[N+](CCCCS(=O)(=O)[O-])c2ccc3ccccc3c21 [ICG, indocyanine green] | – | – | – | – | brightly lit | no signal was observed | – | – | –
CC(=O)O[C@H]1C(=O)[C@@]2(C)[C@H]([C@H](OC(=O)c3ccccc3)[C@]3(O)C[C@H](OC(=O)[C@H](O)[C@@H](NC(=O)c4ccccc4)c4ccccc4)C(C)=C1C3(C)C)[C@]1(OC(C)=O)CO[C@@H]1C[C@@H]2O [PTX, paclitaxel] | – | relatively higher | relatively lower | 294.1 times | – | – | 796.55 ng/min/mL | below the limit of detection (LOD) | –
Cc1nc2n(c(=O)c1CCN1CCC(c3noc4cc(F)ccc34)CC1)CCCC2 [RIS, risperidone] | – | relatively higher | relatively lower | – | – | – | – | – | –
CCN(C)C(=O)Oc1cccc([C@H](C)N(C)C)c1.O=C(O)C(O)C(O)C(=O)O [RVG, rivastigmine i-tartrates] | – | relatively higher | – | – | – | – | – | – | –
Cn1nnc2c(C(N)=O)ncn2c1=O [TMZ, temozolomide] | 1.9 times | relatively higher | relatively lower | 3.4 times | – | – | – | – | 3.0 times
